# Source: PMC10530836, “Synthesis, Molecular Docking, and Biological Evaluation of Novel Anthranilic Acid Hybrid and Its Diamides as Antispasmodics” (International Journal of Molecular Sciences, 2023)
# Tested on: K-562, LAMA-84, T-24, CCL-1 cell lines
# Experiment: MTT cell viability assay, cell line panel
# Assay type: cell-based
# Conditions: leukemic cells LAMA-84 and K-562; read-out: IC50 estimates
# Description: Based on the PASS online and the ProToxII in silico calculations, the evaluation of the cytotoxic activity of the compounds was the other object of our investigation. A series of MTT experiments were conducted to evaluate the in vitro effects of the tested compounds on cell growth in both normal (murine fibroblast CCL-1 cells) and malignant human cell lines of leukemic (K-562, LAMA-84) and epithelial (T-24 bladder carcinoma cells) origin.
# To evaluate the biocompatibility of the hybrid compounds, their in vitro antiproliferative activity was assessed in a panel of human malignant cell lines of different origin (K-562 and LAMA-84 suspension-growing myeloid leukemia cells, positive for the Philadelphia chromosome, and the urothelial bladder carcinoma cell line T-24 of adherent type). Non-malignant murine fibroblast cells (CCL-1) were also used as a screening platform. […]
# The effects of the newly synthesized anthranilic derivatives on cell viability were measured using a validated colorimetric assay for evaluating cell viability, known as the Mosmann MTT method. […] The latter was dissolved in isopropyl alcohol solution containing 5% formic acid prior to absorbance measurement at 550 nm. Collected absorbance values were blanked against MTT and isopropanol solution and normalized to the mean value of untreated control (100% cell viability).
compound,measurement,value
"O=C(Nc1ccccc1C(=O)NCCc1cccc(Cl)c1)c1ccccc1 [Compound 4b, 2-benzamido-N-(3-chlorophenethyl)benzamide]",IC50,30 to 60 µM
